Experimental data taken from PubChem BioAssay (NCI).
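Assay format: 96-well plates, 48-hour exposure. GI50 is the concentration that inhibits growth by half. At the TGI there is no net growth.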

Assays:
Experiment in all cases: DTP human tumour cell line panel, 48 h
[1] = tested on: U251 CNS
[2] = tested on: IGROV1 ovarian
[3] = tested on: OVCAR-8 ovarian
[4] = tested on: NCI-H460 lung
[5] = tested on: SN12C renal
[6] = tested on: TK-10 renal
[7] = tested on: SK-MEL-5 melanoma
[8] = tested on: RXF 393 renal
[9] = tested on: RPMI-8226 leukemia
[10] = tested on: BT-549 breast

| Compound | TGI [1] [µM] | TGI [2] [µM] | TGI [3] [µM] | TGI [4] [µM] | TGI [5] [µM] | TGI [6] [µM] | TGI [7] [µM] | TGI [8] [µM] | TGI [9] [µM] | GI50 [1] [µM] | GI50 [3] [µM] | GI50 [5] [µM] | TGI [10] [µM] |
| --- | --- | --- | --- | --- | --- | --- | --- | --- | --- | --- | --- | --- | --- |
| CCc1cccc(C)c1NC(=O)C(=O)Cc1nc2ccccc2s1 | > 100 | 20.8 | > 100 | > 100 | > 100 | > 100 | > 100 | > 100 | – | – | – | – | – |
| COc1ccc(OC)c(NC(=O)CCC/C(CC(=O)c2ccc(O)c(OC)c2)=N\Nc2ccc([N+](=O)[O-])cc2)c1 | > 100 | > 100 | > 100 | > 100 | > 100 | > 100 | > 100 | 78.6 | > 100 | – | – | – | – |
| O=S1(=O)OCCOS(=O)(=O)C1Cc1ccccc1 | > 100 | 93.3 | > 100 | > 100 | > 100 | > 100 | – | > 100 | 69.2 | – | – | – | – |
| Cc1ccc(Nc2nc(C)c(C(/C=C/c3ccc(/C=C/C(=N/NC(=O)C[n+]4ccccc4)c4sc(Nc5ccc(C)cc5[N+](=O)[O-])nc4C)cc3)=N\NC(=O)C[n+]3ccccc3)s2)c([N+](=O)[O-])c1 | > 100 | > 100 | > 100 | > 100 | > 100 | > 100 | – | > 100 | – | – | – | – | – |
| CN(C(=O)c1ccco1)C(=S)N1CCN(c2ccccc2)CC1 | > 100 | > 100 | > 100 | > 100 | > 100 | > 100 | > 100 | > 100 | > 100 | – | – | – | – |
| O=C1CC(S(=O)(=O)O)C=C1Nc1cccc(Cl)c1 (stereo not drawn) | > 100 | > 100 | > 100 | > 100 | > 100 | > 100 | > 100 | > 100 | – | – | – | – | – |
| COc1cc(/C=C2\Sc3scc(-c4cccc([N+](=O)[O-])c4)[n+]3C2=O)cc(OC)c1OC | 26.3 | 29.4 | > 100 | 24.2 | 42.5 | 22.6 | 17.8 | 26.9 | 22.7 | – | – | – | – |
| N#CC(c1nc2ccccc2nc1Cl)S(=O)(=O)c1ccccc1 (stereo not drawn) | > 100 | – | > 100 | > 100 | > 100 | > 100 | > 100 | – | > 100 | – | – | – | – |
| COC(=O)C1=C(c2cc(OC)c(OC)c(OC)c2)OC(c2ccc(OC)c(OC)c2)C1 (stereo not drawn) | > 100 | > 100 | > 100 | > 100 | > 100 | > 100 | 93.7 | > 100 | > 100 | – | – | – | – |
| C/C(CC(=O)Nc1ccc(Cl)cc1)=N\NC(N)=S | > 100 | > 100 | > 100 | > 100 | – | > 100 | > 100 | > 100 | > 100 | – | – | – | – |
| COC(=O)c1cc2ccc(OC(C)=O)c(OC(C)=O)c2cn1 | 28.2 | 33.9 | 22.2 | 39.7 | 21.3 | 34.9 | 30.3 | 33.4 | 4.91 | 12.7 | 10.1 | 6.91 | – |
| COc1cc(C2C(Cl)C(=O)N2NC(=O)c2ccc(N)cc2)ccc1O (stereo not drawn) | 32 | > 100 | 47.4 | > 100 | > 100 | > 100 | > 100 | – | > 100 | – | – | – | – |
| Cc1cc(Cl)ccc1NC(=O)CC/C(CC(=O)C(C)C)=N\NC(=O)C[n+]1ccccc1 | > 100 | > 100 | > 100 | > 100 | > 100 | > 100 | > 100 | > 100 | > 100 | – | – | – | – |
| CCOC(=O)NC(=O)c1cn(CCN2CCN(c3ncnc4nc[nH]c34)CC2)c(=O)[nH]c1=O | > 100 | > 100 | > 100 | > 100 | > 100 | > 100 | > 100 | > 100 | > 100 | – | – | – | – |
| [N-]=[N+]=NC(CI)c1cn([C@H]2C[C@H](O)[C@@H](CO)O2)c(=O)[nH]c1=O (stereo partly drawn) | > 100 | > 100 | > 100 | > 100 | > 100 | > 100 | > 100 | > 100 | > 100 | – | – | – | – |
| Cc1ccccc1NC(=O)C(=O)CC(=O)c1c(C)n([O-])c2ccccc2[n+]1=O | > 100 | > 100 | > 100 | > 100 | > 100 | – | – | > 100 | > 100 | – | – | – | – |
| C/C=C(/COC(C)=O)C(=O)OC1C=C(C=O)C(C)(C)C=C1C (stereo not drawn) | > 100 | > 100 | > 100 | > 100 | > 100 | > 100 | > 100 | – | – | – | – | – | > 100 |

| Compound | TGI [1] [µM] | TGI [2] [µM] | TGI [3] [µM] | TGI [4] [µM] | TGI [5] [µM] | TGI [6] [µM] | TGI [7] [µM] | TGI [8] [µM] | TGI [9] [µM] | GI50 [1] [µM] | GI50 [3] [µM] | GI50 [5] [µM] | TGI [10] [µM] |
| --- | --- | --- | --- | --- | --- | --- | --- | --- | --- | --- | --- | --- | --- |
| C=C1c2[nH]c3c([N+](=O)[O-])c(OC)ccc3c2CCN1C(C)=O | > 100 | > 100 | > 100 | > 100 | > 100 | > 100 | – | > 100 | > 100 | – | – | – | – |
| Cc1[nH]c2ccccc2c1C1Cc2ccccc2N1C(=O)/C=C/C(=O)O (stereo not drawn) | > 100 | > 100 | > 100 | 61.3 | > 100 | > 100 | > 100 | > 100 | – | – | – | – | – |
| CN1c2ccccc2N(C)C23N(C)c4ccccc4N(C)C12N(C)c1ccccc1N3C (stereo not drawn) | > 100 | > 100 | > 100 | > 100 | > 100 | > 100 | > 100 | > 100 | – | – | – | – | – |
| CC1(C)CC(C)(C)C1=NNC(N)=O | > 100 | > 100 | > 100 | > 100 | > 100 | > 100 | > 100 | > 100 | – | – | – | – | – |
| O=C(c1ccccc1)c1cccc(C(=O)c2ccccc2)c1 | > 100 | > 100 | > 100 | > 100 | > 100 | > 100 | > 100 | > 100 | > 100 | – | – | – | – |
| Cc1ccc(N2C(=O)C3C=CC(n4[nH]c(=O)n(Cc5ccccc5)c4=O)CC3C2=O)cc1 (stereo not drawn) | > 100 | > 100 | > 100 | > 100 | > 100 | > 100 | > 100 | > 100 | > 100 | – | – | – | – |
| CC(=O)C1C(=O)C(=O)N(c2ccccc2C(C)C)C1=O (stereo not drawn) | > 100 | > 100 | > 100 | > 100 | > 100 | > 100 | > 100 | > 100 | > 100 | – | – | – | – |
| C[Si](C)(C)c1ccc(-c2sc(-c3ccc([Si](C)(C)C)s3)c3c2C[Si]2(C3)Cc3c(-c4ccc([Si](C)(C)C)s4)sc(-c4ccc([Si](C)(C)C)s4)c3C2)s1 | > 100 | > 100 | > 100 | > 100 | > 100 | > 100 | > 100 | > 100 | > 100 | – | – | – | – |
| O=CC1CCCc2ccccc21 (stereo not drawn) | > 59.4 | > 100 | > 100 | > 100 | > 100 | > 100 | > 100 | > 100 | > 65.8 | – | – | – | – |
| CC1(C)C2C=CC1(C)C1(CC2)OCCO1 (stereo not drawn) | > 100 | > 100 | > 100 | > 100 | > 100 | > 100 | – | > 100 | > 100 | – | – | – | – |
| CCOC(=O)NC(=O)c1cn(CCCCCCOC(=O)NCCCCCCNC(=O)OCCCCCCn2cc(C(=O)NC(=O)OCC)c(=O)[nH]c2=O)c(=O)[nH]c1=O | > 100 | > 100 | > 100 | > 100 | > 100 | – | > 100 | > 100 | > 100 | – | – | – | – |
| COC(=O)c1cc(Cl)ccc1NC(=O)c1ccc([N+](=O)[O-])cc1 | 22.2 | 57.8 | 63.9 | > 100 | – | 40.6 | > 100 | 65.6 | 69.4 | – | – | – | – |
| O=CN/C=C/c1ccc(O)c(O)c1 | > 100 | > 100 | > 100 | > 100 | > 100 | > 100 | – | > 100 | > 100 | – | – | – | – |
| C[C@]12CCC3[C@@H](CC[C@@H]4c5nonc5CC[C@]34C)C1C/C(=N/O)C2=O (stereo partly drawn) | > 100 | > 100 | > 100 | > 100 | > 100 | > 100 | > 100 | > 100 | > 100 | – | – | – | – |
| CN(/N=C/c1cccc2cccnc12)c1ccccc1 | > 100 | > 100 | > 100 | > 100 | > 100 | > 100 | > 100 | > 100 | > 100 | – | – | – | – |
| COC(=O)C1=CC2C(=O)OC1CC2C#N (stereo not drawn) | > 100 | > 100 | > 100 | > 100 | > 100 | > 100 | > 100 | – | > 100 | – | – | – | – |
| CC1=C2C(=CC(C)(C)C2O)C(=O)C(C)(O)C12CC2 (stereo not drawn) | 0.102 | 0.132 | 0.0499 | 0.0412 | 0.146 | 0.14 | 0.0219 | 0.0194 | – | 0.00775 | – | – | – |
